Assay results from patent EP2545914A1, “2-amino-2-oxoethyl trans-3-[5-(6-methoxy-naphtalen-1-yl)-1,3-dioxan-2-yl]propyl-carbamate for use in the treatment of persistent cancer pain” (SANOFI, priority 2011, dated 2013).
Like-named read-outs stand apart in the source and are kept apart here.

What was measured:
[1] = test system: mice inoculated with BO2 breast carcinoma cells; assay: Tactile allodynia (Dynamic Plantar Aesthesiometer) in a model of bone metastatic cancer pain induced by BO2 cells; assay type: in vivo, female BALB/cByJ Ico-nu/nu mice; settings: for paw withdrawal thresholds to non-noxious stimulations versus vehicle-treated animals: p<0.0001; for Reversal of allodynia (%): T2h; for Delta values (Delta PWT): T2h minus T0
Description: The model of cancer pain MDA-MB-231 breast cancer cells cause the development of highly vascularized skeletal lesions in animals. Here, we chose to perform a model of bone metastasis induced by BO2 cells, a sub-clone of MDA-MB-231 cancer cells expressing the bioluminescent jellyfish protein (green fluorescent protein). BO2 cells were inoculated into the tail of nude mice. […] In our study, BO2 invasion of the hind paws was evaluated by combining both fluorescence imaging and X-Ray radiology with evaluation of allodynic-like behavior in the tumor-bearing hind paws. The aim of the study was to assess the anti-allodynic activity of Compound A in a model of bone metastatic cancer pain in mice, at the time when allodynia-like symptoms are fully developed.
Non-fasted female BALB/cByJ Ico-nu/nu mice (aged 4 weeks at the beginning of the experimental phase, Charles River Laboratories, L'Arbresle, France) were used for this study. One week before starting the experiment and to enable full acclimatization, mice were caged in groups of 10 animals per cage. They were housed in macrolon type III cages with filter hoods in a sterile room in which the air was continuously filtered to avoid any contamination. The sterility of the room was checked once a month and the cages were sterilized at 121°C for 30 minutes before use and changed twice a week. Room temperature was maintained at 22°C, and relative humidity at 60% ±10%. The animals were kept under a natural daylight cycle. The animals were fed with RO3 irradiated at 10 kGy, purchased from UAR (91360 Epinay sur Orge, France), and water sterilized at 121°C for 30 minutes. Water consumption was visually monitored daily and the bottles were changed twice a week. Food and water were given ad libitum. The animal bedding was produced by UAR and sterilized at 121°C for 30 minutes and renewed twice a week. One day before the beginning of the study, mice were implanted in the back with an electronic chip for identification purposes. The day of BO2 breast carcinoma inoculation into the tail vein, mice were placed in groups of 9 or 8 animals per cage. Tumor progression (fluorescence imaging +X-Ray radiology) associated with evoked pain behavior were measured at least once a week during the entire study (data available on request). This allowed us to ensure that only mice with tumor progression and pain-like behavior were selected to enter in the testing procedure.
Compound A as a base was prepared extemporaneously as follows: the compound was weighed and 0.5% of Tween 80 was added, followed by addition of 0.6% Methyl Cellulose. The resulting suspensions were maintained at room temperature under magnetic stirring until the administration. Compound A was administered via oral gavage in a volume of 10 mL/kg, once daily for 7 days. On the first day of treatment, Compound A was administered at 30 mg/kg. From day 2 to day 7, Compound A was administered at 10 mg/kg.
For the present study, 2 groups of 8 mice receiving the BO2 breast carcinoma cells and 1 group of 8 mice (control animals) receiving only the culture medium were used (Table 1.1). Table 1.1 - Design of the study
No animals were excluded for this study. However, one mouse died in one of the BO2-inoculated groups (mouse found dead in the cage on day 7), while no mice died in the control group (n = 8). No randomization was performed at the beginning of the experiment and mice were treated by cage. A seven day treatment with Compound A or vehicle was performed with evaluation of evoked pain at day 1, day 3 and day 7 post-treatment. As bone metastases were distributed in both hind-paws, we decided at the beginning of the study to arbitrarily measure pain-like behavior evoked by a stimulus in only one hind-paw (the right hind-paw). Pain-like behaviors before and after treatment with vehicle or Compound A were evaluated during 3 sessions (i.e. on day 1, day 3 and day 7). […]

[2] = test system: UDP-glucuronosyl transferase; assay type: in vitro ADME, human; settings: for % Control (M6G formation) / % Control (M3G formation): Morphine 2mM, protein 0.5 mg/mL, 30 min
Description: Incubations were conducted in 2-mL polypropylene centrifuge tubes. Incubation mixtures containing HLM suspension and alamethicin (25 µg/mL) in 0.1 M potassium phosphate buffer (pH 7.4), were placed on wet ice for 5 min. […] Reactions were initiated by the addition of 50 mM UDPGA spiking solution. […] Samples were incubated aerobically in a water bath at 37 °C for the required amount of time and reactions terminated by the addition of 400 µL of the appropriate quench solution. The 2-mL centrifuge tubes were vortex mixed and stored in a -20 °C freezer for ca. 20 min prior to centrifugation at 13.3 x g, 4 °C for 10 min. Supernatants were analyzed by LC-MS/MS for morphine metabolites formation.
UGT-dependent activities were determined by monitoring the formation of enzyme specific metabolites from marker substrates. […] Incubation with selective inhibitors (positive control) was performed at a concentration above their established IC50 for the confirmation of enzyme activity and inhibitory effects.
Incubations were performed in 2-mL centrifuge tubes. Incubation mixtures containing HLM suspension and alamethicin (25 µg/mL) in 0.1 M potassium phosphate buffer (pH 7.4), were placed on wet ice for 5 min. […] Reactions were initiated by the addition of UDPGA. The final incubation mixture contained 0.5 mg/mL HLM, 2 mM MgCl2, 5 mM UDPGA, various concentration of Compound A or a selective inhibitor. Samples were incubated aerobically in a water bath at 37 °C for 30 min. The incubation systems were terminated by the addition of a 400-µL quenching solution. The 2-mL centrifuge tubes were vortex mixed and stored in a -20 °C freezer for approximately 20 min prior to centrifugation at 13.3 x g, 4 °C for 10 min. Supernatants were analyzed by LC-MS/MS.
Percent of Control = Cmet÷Ccontrol × 100% [formula] • Cmet: Concentration of the metabolite in the incubations in the presence of Compound A or selective inhibitor • Ccontrol: Concentration of the enzyme-specific metabolite in the incubations in the absence of Compound A and selective inhibitor • The IC50 for Compound A was estimated by non-linear regression analysis of individual sets of percent inhibition values using GraphPad Prism 5.

**Q.** What does the source list for `COc1ccc2c(cccc2[C@H]2CO[C@H](CCCNC(=O)OCC(N)=O)OC2)c1` [Compound A, 2-amino-2-oxoethyl trans-3-[5-(6-methoxy-naphtalen-1-yl)-1,3-dioxan-2-yl]propyl-carbamate]?
**A.** paw withdrawal thresholds to non-noxious stimulations versus vehicle-treated animals ([1]; 10 mg/kg PO once daily, day 3 and day 7): significantly higher; Reversal of allodynia (%) ([1]; Day 3, 10 mg/kg PO): 45.06 ±3.11%; Delta values (Delta PWT) ([1]; Day 3, 10 mg/kg PO): 0.78 ±0.06; Reversal of allodynia (%) ([1]; Day 7, 10 mg/kg PO): 41.87 ±4.01%; Delta values (Delta PWT) ([1]; Day 7, 10 mg/kg PO): 0.79 ±0.08; evoked-pain induced by bone metastases in the hind-paw ([1]; acute oral dosing, allodynia fully installed): significantly reversed; Reversal of allodynia (%) ([1]; day 1, 30 mg/kg PO, Mean ±SEM): 68.74 ±8.99%; Delta values (Delta PWT) ([1]; day 1, 30 mg/kg PO, Mean ±SEM): 1.04 ±0.13; PWT values at T0 ([1]; day 1, T0 (baseline before administration), group dosed 30 mg/kg PO, Mean ±SEM): 1.815 ±0.065 gram; PWT values at T0 ([1]; day 7, T0 (before that day's administration), 10 mg/kg PO once daily, Mean ±SEM): 1.728 ±0.050 gram; paw withdrawal thresholds to non-noxious stimulations versus vehicle-treated animals ([1]; first day, 30 mg/kg PO): significantly higher; tolerance in analgesic effect ([1]; repeated (7 days) administration): did not induce tolerance; IC50 (M3G and M6G formation) ([2]; 2 mM morphine, Compound A 0.5 to 250 µM, HLM): could not be estimated; % Control (M6G formation) ([2]; Compound A 0.5 µM): 96.9%; % Control (M6G formation) ([2]; Compound A 1.0 µM): 94.4%; % Control (M6G formation) ([2]; Compound A 5.0 µM): 102.4%; % Control (M6G formation) ([2]; Compound A 10 µM): 110.4%; % Control (M6G formation) ([2]; Compound A 25 µM): 105.8%; % Control (M6G formation) ([2]; Compound A 50 µM): 108.3%; % Control (M6G formation) ([2]; Compound A 100 µM): 97.4%; % Control (M6G formation) ([2]; Compound A 250 µM): 96.5%; % Control (M3G formation) ([2]; Compound A 0.5 µm): 97.7%; % Control (M3G formation) ([2]; Compound A 1.0 µm): 96.2%; % Control (M3G formation) ([2]; Compound A 5.0 µm): 106.0%; % Control (M3G formation) ([2]; Compound A 10 µm): 107.9%; % Control (M3G formation) ([2]; Compound A 25 µm): 108.3%; % Control (M3G formation) ([2]; Compound A 50 µm): 105.7%; % Control (M3G formation) ([2]; Compound A 100 µm): 92.7%; % Control (M3G formation) ([2]; Compound A 250 µm): 94.2%; drug interaction with morphine ([2]; according to in vitro results): no significant drug interaction; inhibition of morphine metabolism ([2]; human liver microsomes, M3G and M6G formation): no inhibition

**Q.** How did the “inhibition of M6G activity” value ([2]; positive control, same conditions (2 mM morphine, HLM 0.5 mg/mL, 30 min)) turn out when `CC(=O)N1CCN(c2ccc(OCC3COC(Cn4ccnc4)(c4ccc(Cl)cc4Cl)O3)cc2)CC1` (centres unmarked) [ketoconazole, reference compound] was run?
**A.** The value was ≥ 98.5%.
